Data: BindingDB's records for doi:10.1021/bi00246a005 (Texas A&M University, 1991)

Each molecule was assayed against T1, Carbamoyl-phosphate synthase small chain (Escherichia coli (strain K12), UniProt P0A6F1) (assay: Enzyme Assay). Conditions: pH 7.5.
T1 sequence (P0A6F1 whole entry): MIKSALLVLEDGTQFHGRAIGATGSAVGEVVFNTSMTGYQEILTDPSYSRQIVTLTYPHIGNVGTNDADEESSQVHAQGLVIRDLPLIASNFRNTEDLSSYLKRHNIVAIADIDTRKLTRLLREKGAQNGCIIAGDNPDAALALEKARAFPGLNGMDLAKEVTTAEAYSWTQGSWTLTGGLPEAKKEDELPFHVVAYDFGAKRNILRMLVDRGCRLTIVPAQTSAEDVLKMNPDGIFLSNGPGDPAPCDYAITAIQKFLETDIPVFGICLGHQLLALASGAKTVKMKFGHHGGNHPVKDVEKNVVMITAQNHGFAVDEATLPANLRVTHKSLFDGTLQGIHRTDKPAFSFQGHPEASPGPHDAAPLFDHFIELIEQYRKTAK
Procedure: The rate of carbamoyl phosphate synthesis was determined by use of a coupled enzyme assay with ornithine transcarbamoylase.

| Structure (SMILES) | Ki [µM] |
| --- | --- |
| NC(=O)CCC(N)C(=O)O (stereo not given) [Glutamine Analogue, 1] | 54 |
| NC(CCC(=O)NO)C(=O)O (stereo not given) [Glutamine Analogue, 2] | 9 |
| NNC(=O)CCC(N)C(=O)O (stereo not given) [Glutamine Analogue, 3] | 340 |
| NC(CCC(=O)O)C(=O)O (stereo not given) [Glutamine Analogue, 4] | 28000 |
| COC(=O)CCC(N)C(=O)O (stereo not given) [Glutamine Analogue, 5] | 25000 |
